One assay deals with PIM-1 (Homo sapiens (Human), UniProt P11309). The assay can be described thus: Luminometric kinase assay for PIM1 kinase (Kinase-Glo). The assay is classed as biochemical. As to conditions: 1 μM ATP, 25 min at RT. The method in brief:
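Kinase and substrate reacted in 8 mM MOPS/NaOH pH7.0, 0.2 mM EDTA, 2 mM MgCl2 with 1 μM ATP for 25 min at RT, compounds serially diluted from 1 μM. Remaining ATP read by Kinase-Glo luminescence; IC50 from variable-slope sigmoidal fit.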
A general note: Kinase-Glo measures the ATP left after a reaction by luminescence.

Assay [1] relates to human chronic myelocytic leukemia K562 cells. Nature of the assay: Growth inhibition test (MTS) on K562 cells. The assay is classed as cell-based. As to conditions: Homo sapiens, K562, 72 hours, read-out: K562 ED50. The protocol:
Ten thousand cells of human chronic myelocytic leukemia K562 were inoculated into each well of a 96-well microplate (manufactured by Corning Corp.) using Iscove's MDM medium (culture medium) containing 10% fetal calf serum (FCS). Next day, a dimethyl sulfoxide (DMSO) solution of each test compound prepared in a concentration of 10 mmol/L was further diluted with culture medium to the desired concentrations (0.1, 0.5, 1, 2.5, 5 and 10 micromol/L), and the diluted solution was added to each well. The individual wells were further cultured in 5% carbon dioxide at 37° C. for 72 hours. After completion of the culture, 10 μl MTS (3-(4,5-Dimethyl-2-thiazolyl)-5-(carboxymethoxyphenyl)-2-(4-sulfophenyl)-2H-tetrazolium, inner salt assay (CellTiter96® AQueous One Solution Cell Proliferation Assay, Promega) was added to each well, and culturing was performed in 5% carbon dioxide at 37° C. for 2 hours. Using a microplate spectrophotometer (Synergy 2 multi-mode microplate reader (BioTek)), the absorbance of each well was measured at 490 nm. The value for cells not incorporated with a test compound was designated as 100%. By comparing these values with the absorbance difference obtained at the well in which each test compound was added, the cell viability (% viability) after treatment with the test compound was calculated.

Assay [2] has as its system human colorectal adenocarcinoma SW480 cells. The assay can be described thus: Growth inhibition test (MTS) on SW480 cells. It counts as cell-based. As to conditions: Homo sapiens, SW480, 72 hours, read-out: SW480 ED50.
For assay [3], the system named is human prostate adenocarcinoma PC3 cells. The assay can be described thus: Growth inhibition test (MTS) on PC3 cells. Particulars: Homo sapiens, PC-3, 72 hours, read-out: PC-3 ED50. It counts as cell-based.
The subject of assay [4] is human hepatoma HepG2 cells. The assay can be described thus: Growth inhibition test (MTS) on HepG2 cells. It counts as cell-based. As to conditions: 72 hours, read-out: HepG2 ED50. The method in brief: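 HepG2 cells in DMEM with 10% FCS were exposed for 72 h at 37 °C, 5% CO2, to 0.1, 0.5, 1, 2.5, 5 and 10 micromol/L compound. MTS was then added for 2 h and absorbance read at 490 nm. % viability was calculated relative to untreated cells set at 100%.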

This passage reports IC50 results from patent publication US8604217B2, “Compound, a process for its preparation, a pharmaceutical composition, use of a compound, a method for modulating or regulating serine/threonine kinases and a serine/threonine kinases modulating agent” (Selvita S.A., priority 2009, dated 2013).

Sequence of PIM-1 (P11309 whole entry): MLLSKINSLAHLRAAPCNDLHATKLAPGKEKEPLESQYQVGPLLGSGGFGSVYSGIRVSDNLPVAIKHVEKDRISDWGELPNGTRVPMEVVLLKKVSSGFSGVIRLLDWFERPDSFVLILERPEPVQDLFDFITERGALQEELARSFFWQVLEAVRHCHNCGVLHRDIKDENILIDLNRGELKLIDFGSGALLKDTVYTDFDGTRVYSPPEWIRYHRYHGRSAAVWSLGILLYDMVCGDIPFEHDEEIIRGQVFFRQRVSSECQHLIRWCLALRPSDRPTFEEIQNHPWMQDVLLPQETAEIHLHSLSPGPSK

Consider `CCn1c(N2CCN(CCN3CCNCC3)CC2)nc2c(Br)c(Br)c(Br)c(Br)c21` [Compound 441, 4,5,6,7-tetrabromo-1-ethyl-2-(4-(2-(piperazin-1-yl)ethyl)piperazin-1-yl)-1H-benzo[d]imidazole], for which the IC50 on PIM-1 stood at 65 nM; in assay [1], 1650 nM; in assay [2], 700 nM; in assay [3], 1600 nM; in assay [4], 700 nM.

Take `CCn1c(N2CCN(CCCN3CCOCC3)CC2)nc2c(Br)c(Br)c(Br)c(Br)c21` [Compound 450]: the IC50 at PIM-1 stood at 125 nM; in assay [1], 2900 nM; in assay [2], 1000 nM; in assay [3], 3600 nM; in assay [4], 1500 nM.

Consider `Brc1c(Br)c(Br)c2c(Br)n[nH]c2c1Br` [Compound K64, 3,4,5,6,7-pentabromo-1H-indazole, reference compound], for which the IC50 on PIM-1 was more than 1000 nM; in assay [1] it was more than 10000 nM; in assay [2], 9130 nM; in assay [3], more than 10000 nM; in assay [4], more than 10000 nM.

As for `CN(C)c1nc2c(Br)c(Br)c(Br)c(Br)c2n1CC(=O)O` [Compound K66, 1-carboxymethyl-2-dimethylamino-4,5,6,7-tetrabromo-benzimidazole, reference compound], the IC50 at PIM-1 was more than 1000 nM; in assay [1], more than 10000 nM; in assay [2], more than 10000 nM; in assay [3] it was more than 10000 nM; in assay [4] it was more than 10000 nM.

Turning to `CN(C)c1nc2c(Br)c(Br)c(Br)c(Br)c2[nH]1` [DMAT, 2-dimethylamino-4,5,6,7-tetrabromo-1H-benzimidazole, reference compound], the IC50 on PIM-1 is 31 nM; in assay [1], more than 10000 nM; in assay [2] it was more than 10000 nM; in assay [3], more than 10000 nM; in assay [4], more than 10000 nM.

Consider `Brc1c(Br)c(Br)c2[nH]nnc2c1Br` [TBB, 4,5,6,7-tetrabromo-1Hbenzotriazole, reference compound], for which the IC50 on PIM-1 was more than 1000 nM; in assay [1] it was more than 10000 nM; in assay [2] it was more than 10000 nM; in assay [3] it was more than 10000 nM; in assay [4], more than 10000 nM.

As to `Brc1c(Br)c(Br)c2[nH]cnc2c1Br` [TBI, 4,5,6,7-tetrabromo-1H-benzimidazole, reference compound], the IC50 at PIM-1 was 102 nM; in assay [1] it was more than 10000 nM; in assay [2], 7210 nM; in assay [3] it was more than 10000 nM; in assay [4], more than 10000 nM.
